Measurements from patent US7759350B2, “Pyrimidine carboxamides” (Orchid Research Laboratories Ltd., priority 2005, dated 2010).

Experiments:
TNF-α [1] = test: In vitro measurement of TNF-α in human PBMC; format: cell-based; conditions: at 1 μM, LPS
Protocol: In Vitro Measurement of Tumor Necrosis Factor Alpha (TNF-α)
This assay determines the effect of test compounds on the production of TNF-α in human Peripheral Blood Mononuclear Cells (PBMC). Compounds were tested for their ability to inhibit the activity of TNF-α in human PBMC. PBMC were isolated from blood (from healthy volunteers) using BD Vacutainer CPT™ (Cell preparation tube, BD Bio Science) and suspended in RPMI medium (Physiol. Res. 52; 593-598, 2003). The test compounds were pre-incubated with PBMC (0.5 million/incubation well) for 15 minutes at 37° C. and then stimulated with Lipopolysaccharide (Escherichia coli: B4; 1 μg/ml) for 18 hours at 37° C. in 5% CO2. The levels of TNF-α in the cell culture medium were estimated using enzyme linked Immunosorbent assay performed in a 96 well format as per the procedure of the manufacturer (R&D Systems, Inc. 614 McKinley Place Nebr., Minneapolis, Minn. 55413, USA).

TNF-α [2] = test: LPS induced sepsis for measurement of TNF-α inhibition in mice; format: in vivo; conditions: 50 mg/kg bw oral; female Swiss albino mice; serum 90 minutes after LPS
Protocol: LPS Induced Sepsis for Measurement of TNF-α Inhibition in Mice
The LPS induced sepsis model in mice was performed as described by Les sekut et al (J Lab Clin Med 1994; 124:813-20). Female Swiss albino mice were selected with their body weights being equivalent within each group. The mice were fasted for 20 hours with free access to water. The mice were dosed orally with the test compound suspended in vehicle containing 0.5% Tween 80 in 0.25% Carboxy-methylcellulose sodium salt. The control mice were administered the vehicle alone. After 30 minutes of oral dosing, the mice were injected with 500 μg of Lipopolysaccharide (Escherichia coli, LPS: B4 from Sigma) in phosphate buffer saline solution into the intraperitoneal cavity of the mice. After 90 minutes of LPS administration, the mice were bled via retro-orbital sinus puncture. Blood samples were stored overnight at 4° C. Serum samples were collected by centrifuging the samples at 4000 rpm for 15 minutes at 4° C. Immediately the serum samples were analysed for TNF-α levels, using commercially available mouse TNF-α ELISA kit (Amersham Biosciences) and assay was performed by the manufacturer instruction.

IL-1β = test: In vitro measurement of IL-1β in human PBMC; format: cell-based; conditions: Conc. 0.1 μM, LPS
In short: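 Human PBMC (0.5 million/well) preincubated with compound 15 min at 37° C., then stimulated with E. coli LPS (1 μg/ml) for 18 h at 37° C. Cytokine in culture medium quantified by ELISA.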

[3] = biological target: purified recombinant COX-1 enzyme (Homo sapiens, UniProt P23219); test: COX-1 enzyme based assay; format: biochemical; conditions: Conc. 10 μM
Sequence of purified recombinant COX-1 enzyme (P23219 24-599): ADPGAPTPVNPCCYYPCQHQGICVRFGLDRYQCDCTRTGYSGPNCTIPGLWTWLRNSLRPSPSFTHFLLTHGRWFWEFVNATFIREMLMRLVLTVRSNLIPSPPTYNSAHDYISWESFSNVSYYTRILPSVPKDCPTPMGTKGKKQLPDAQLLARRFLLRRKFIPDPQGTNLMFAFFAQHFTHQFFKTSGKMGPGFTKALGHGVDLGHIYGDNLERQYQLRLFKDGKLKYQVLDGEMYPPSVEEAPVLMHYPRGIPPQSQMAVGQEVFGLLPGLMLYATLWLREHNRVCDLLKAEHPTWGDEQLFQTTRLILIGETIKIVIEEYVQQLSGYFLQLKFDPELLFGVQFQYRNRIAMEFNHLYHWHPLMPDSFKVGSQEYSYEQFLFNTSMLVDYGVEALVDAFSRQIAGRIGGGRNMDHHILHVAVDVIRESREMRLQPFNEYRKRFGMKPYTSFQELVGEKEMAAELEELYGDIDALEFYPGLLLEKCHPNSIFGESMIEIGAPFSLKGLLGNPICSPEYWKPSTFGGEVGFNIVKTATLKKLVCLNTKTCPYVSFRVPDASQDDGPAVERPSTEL
Protocol: COX-1 and COX-2 Enzyme Based Assay
COX-2 enzyme based assays were carried out to check the inhibitory potential of test compounds on the production of prostaglandin by purified recombinant COX-1/COX-2 enzyme (Proc. Nat. Acad. Sci. USA, 88, 2692-2696, 1991; Clin. Immunoassay 15, 116-120, 1992) In this assay, the potential of the test compound to inhibit the production of prostaglandin either by COX-1 or COX-2 from arachidonic acid (substrate) was measured. This was an enzyme based in-vitro assay to evaluate selective COX inhibition with good reproducibility.
Arachidonic acid was converted to PGH2 (Intermediate product) by COX1/COX-2 in presence or absence of the test compound. The reaction was carried out at 37° C. and after 2 minutes it was stopped by adding 1M HCl. Intermediate products PGH2 was converted to a stable Prostanoid product PGF2α by SnCl2 reduction. The amount of PGF2α produced in the reaction was inversely proportional to the COX inhibitory potential of the test compound. The prostanoid product was quantified via enzyme immunoassay (EIA) using a broadly specific antibody that binds to all the major forms of Prostaglandin, using Cayman ELISA kit as per the procedure outlined by the manufacturer Cayman Chemicals, Ann Arbor, USA).

- COX-1 Inhibition (%) [3]: Not Active
Compound: CNc1nc(-c2ccncc2)nc(SC)c1C(=O)Nc1ccc(OC)cc1 [Example 14, N-(4-Methoxyphenyl)-4-(methylamino)-6-(methylthio)-2-pyridin-4-ylpyrimidine-5-carboxamide]
- inhibition at 1 µM (TNF-α [1]): 36.8%
- TNF-α Inhibition (%) at 50 mg/kg bw (TNF-α [2]): 18.74%
- IL-1β Inhibition (%) (IL-1β): Not active
